Results from ChEMBL document CHEMBL4627329, “Regioselective synthesis and evaluation of 2-amino 3-cyano chromene-chrysin hybrids as potential anticancer agents” (Bioorg Med Chem Lett, 2020).
pIC50: −log10 of the molar value. Active and inactive are the calls of the source. No cut-off for these calls is given here.

Columns and labels:
K562 [1] = assay: Antiproliferative activity against human K562 cells assessed as inhibition of cell proliferation incubated for 48 hrs by MTT assay; format: functional, cell-based; conditions: K562, 48 h
PC-3 = assay: Antiproliferative activity against human PC3 cells assessed as inhibition of cell proliferation incubated for 48 hrs by MTT assay; format: functional, cell-based; conditions: PC-3, 48 h
NCI-H1299 = assay: Antiproliferative activity against human NCI-H1299 cells assessed as inhibition of cell proliferation incubated for 48 hrs by MTT assay; format: functional, cell-based; conditions: NCI-H1299, 48 h
A549 = assay: Antiproliferative activity against human A549 cells assessed as inhibition of cell proliferation incubated for 48 hrs by MTT assay; format: functional, cell-based; conditions: A549, 48 h
MRC5 = assay: Cytotoxicity against human MRC5 cells assessed as inhibition of cell proliferation incubated for 48 hrs by MTT assay; format: cell-based; conditions: MRC5, 48 h
K562 [2] = assay: Induction of apoptosis in human K562 cells at assessed as late apoptotic cells at 20 uM measured after 24 hrs by AnnexinV-FITC/propidium iodide staining based flow cytometry (reference value: 2.06 %); format: functional
K562 [3] = assay: Induction of apoptosis in human K562 cells at assessed as live cells at 10 uM measured after 24 hrs by AnnexinV-FITC/propidium iodide staining based flow cytometry (reference value: 96 %); format: functional
K562 [4] = assay: Induction of apoptosis in human K562 cells assessed as downregulation of Bcl-2 protein measured after 24 hrs by Western blot analysis; format: functional, cell-based
K562 [5] = assay: Induction of apoptosis in human K562 cells at assessed as live cells at 20 uM measured after 24 hrs by AnnexinV-FITC/propidium iodide staining based flow cytometry (reference value: 96 %); format: functional
K562 [6] = assay: Induction of apoptosis in human K562 cells assessed as upregulation of Bax protein expression measured after 24 hrs by Western blot analysis; format: functional, cell-based
K562 [7] = assay: Induction of apoptosis in human K562 cells at assessed as early apoptotic cells at 10 uM measured after 24 hrs by AnnexinV-FITC/propidium iodide staining based flow cytometry (reference value: 1.45 %); format: functional
K562 [8] = assay: Induction of apoptosis in human K562 cells at assessed as necrotic cells at 20 uM measured after 24 hrs by AnnexinV-FITC/propidium iodide staining based flow cytometry (reference value: 0.518 %); format: functional
K562 [9] = assay: Induction of apoptosis in human K562 cells at assessed as necrotic cells at 5 uM measured after 24 hrs by AnnexinV-FITC/propidium iodide staining based flow cytometry (reference value: 0.518 %); format: functional
K562 [10] = assay: Induction of apoptosis in human K562 cells at assessed as early apoptotic cells at 20 uM measured after 24 hrs by AnnexinV-FITC/propidium iodide staining based flow cytometry (reference value: 1.45 %); format: functional
K562 [11] = assay: Induction of apoptosis in human K562 cells at assessed as necrotic cells at 10 uM measured after 24 hrs by AnnexinV-FITC/propidium iodide staining based flow cytometry (reference value: 0.518 %); format: functional
K562 [12] = assay: Cell cycle arrest in human K562 cells assessed as increase in cell population at G1 phase at 5 uM measured after 24 hrs by flow cytometry analysis; format: functional, cell-based
K562 [13] = assay: Induction of apoptosis in human K562 cells measured after 24 hrs by AnnexinV-FITC/propidium iodide staining based flow cytometry; format: functional, cell-based
K562 [14] = assay: Induction of apoptosis in human K562 cells at assessed as late apoptotic cells at 5 uM measured after 24 hrs by AnnexinV-FITC/propidium iodide staining based flow cytometry (reference value: 2.06 %); format: functional
K562 [15] = assay: Induction of apoptosis in human K562 cells at 5 to 20 uM measured after 24 hrs by AO-EB staining based fluorescence microscopy analysis; format: functional, cell-based
K562 [16] = assay: Induction of apoptosis in human K562 cells at assessed as late apoptotic cells at 10 uM measured after 24 hrs by AnnexinV-FITC/propidium iodide staining based flow cytometry (reference value: 2.06 %); format: functional
K562 [17] = assay: Cell cycle arrest in human K562 cells assessed as decrease in cell population at S phase at 5 uM measured after 24 hrs by flow cytometry analysis; format: functional, cell-based
K562 [18] = assay: Induction of apoptosis in human K562 cells at assessed as early apoptotic cells at 5 uM measured after 24 hrs by AnnexinV-FITC/propidium iodide staining based flow cytometry (reference value: 1.45 %); format: functional
K562 [19] = assay: Induction of apoptosis in human K562 cells at assessed as live cells at 5 uM measured after 24 hrs by AnnexinV-FITC/propidium iodide staining based flow cytometry (reference value: 96 %); format: functional

Row | pIC50 (K562 [1]) | pIC50 (PC-3) | pIC50 (NCI-H1299) | pIC50 (A549) | SMILES | further results
1 | 4.83 | 4.55 | 4.55 | 4.31 | Cc1ccc(C2C(C#N)=C(N)Oc3cc4oc(-c5ccccc5)cc(=O)c4c(O)c32)cc1 (stereo unspecified) | 
2 | 4.55 | 4.36 | 4.34 | 4.36 | N#CC1=C(N)Oc2cc3oc(-c4ccccc4)cc(=O)c3c(O)c2C1c1ccccc1F (stereo unspecified) | 
3 | 5.19 | 4.43 | 4.62 | < 4.30 | N#CC1=C(N)Oc2cc3oc(-c4ccccc4)cc(=O)c3c(O)c2C1c1cccc(Br)c1 (stereo unspecified) | pIC50 (MRC5): < 4.00; Activity (K562 [2]): 7.58%; Activity (K562 [3]): 77.6%; Activity (K562 [4]): Dose-dependent effect; Activity (K562 [5]): 62.4%; Activity (K562 [6]): Dose-dependent effect; Activity (K562 [7]): 14.4%; Activity (K562 [8]): 2.44%; Activity (K562 [9]): 1.06%; Activity (K562 [10]): 27.6%; Activity (K562 [11]): 2.84%; Activity (K562 [12]): Dose-dependent effect; Activity (K562 [13]): Dose-dependent effect; Activity (K562 [14]): 2.85%; Activity (K562 [15]): Active; Activity (K562 [16]): 5.23%; Activity (K562 [17]): Dose-dependent effect; Activity (K562 [18]): 5.87%; Activity (K562 [19]): 90.2%
4 | 4.71 | < 4.30 | 4.38 | < 4.30 | Cc1ccc(C2C(C#N)=C(N)Oc3cc4oc(-c5ccccc5)cc(=O)c4c(O)c32)c(C)c1 (stereo unspecified) | 
5 | 4.34 | < 4.30 | 4.35 | < 4.30 | COc1ccc(-c2cc(=O)c3c(O)c4c(cc3o2)OC(N)=C(C#N)C4c2ccc(F)cc2)c(OC)c1 (stereo unspecified) | 
6 | 4.31 | < 4.30 | < 4.30 | < 4.30 | N#CC1=C(N)Oc2cc3oc(-c4ccccc4)cc(=O)c3c(O)c2C1c1ccccc1Br (stereo unspecified) | 
7 | < 4.30 | < 4.30 | < 4.30 | < 4.30 | COc1c2c(c(O)c3c(=O)cc(-c4ccccc4)oc13)C(c1ccc(C)cc1)C(C#N)=C(N)O2 (stereo unspecified) | 
8 | 4.73 | 4.52 | 4.39 | 4.69 | N#CC1=C(N)Oc2cc3oc(-c4ccccc4)cc(=O)c3c(O)c2C1c1cccc(F)c1 (stereo unspecified) | 
9 | < 4.30 | < 4.30 | < 4.30 | < 4.30 | O=c1cc(-c2ccccc2)oc2cc(O)cc(O)c12 [CHRYSIN] | pIC50 (MRC5): < 4.00
10 | 4.33 | < 4.30 | < 4.30 | < 4.30 | CC(C)(C)c1ccc(C2C(C#N)=C(N)Oc3cc4oc(-c5ccccc5)cc(=O)c4c(O)c32)cc1 (stereo unspecified) | 
11 | 4.81 | 4.38 | 4.39 | 4.50 | N#CC1=C(N)Oc2cc3oc(-c4ccccc4)cc(=O)c3c(O)c2C1c1cccc([N+](=O)[O-])c1 (stereo unspecified) | 
12 | 4.84 | 4.58 | < 4.30 | 4.81 | N#CC1=C(N)Oc2cc3oc(-c4ccccc4)cc(=O)c3c(O)c2C1c1ccc(F)cc1 (stereo unspecified) | 
13 | 4.42 | < 4.30 | 4.40 | < 4.30 | COc1ccc(C2C(C#N)=C(N)Oc3cc4oc(-c5ccccc5)cc(=O)c4c(O)c32)cc1 (stereo unspecified) | 
14 | 4.91 | < 4.30 | 4.48 | < 4.30 | N#CC1=C(N)Oc2cc3oc(-c4ccccc4)cc(=O)c3c(O)c2C1c1ccc(Cl)cc1 (stereo unspecified) | 
15 | 4.84 | < 4.30 | 4.36 | < 4.30 | N#CC1=C(N)Oc2cc3oc(-c4ccccc4)cc(=O)c3c(O)c2C1c1ccccc1Cl (stereo unspecified) | 
16 | 5.00 | 4.33 | 4.73 | < 4.30 | N#CC1=C(N)Oc2cc3oc(-c4ccccc4)cc(=O)c3c(O)c2C1c1ccc(Br)cc1 (stereo unspecified) | 
17 | 4.77 | < 4.30 | < 4.30 | < 4.30 | COc1cccc(C2C(C#N)=C(N)Oc3cc4oc(-c5ccccc5)cc(=O)c4c(O)c32)c1OC (stereo unspecified) | 
18 | 4.37 | 4.33 | < 4.30 | 4.50 | N#CC1=C(N)Oc2cc3oc(-c4ccccc4)cc(=O)c3c(O)c2C1c1ccccc1 (stereo unspecified) | 
19 | 4.69 | < 4.30 | < 4.30 | < 4.30 | COc1ccccc1C1C(C#N)=C(N)Oc2cc3oc(-c4ccccc4)cc(=O)c3c(O)c21 (stereo unspecified) | 
